Measured values taken from ChEMBL document CHEMBL1142376, “Novel CADD-based peptidyl vinyl ester derivatives as potential proteasome inhibitors” (Bioorg Med Chem Lett, 2008).

Assays:
[1] = tested on: Bel-7402; assay: Antiproliferative activity against human Bel7402 cells at 10 umole; assay type: functional
[2] = Inhibition of chymotrypsin-like activity of 20S proteasome
[3] = tested on: HL-60; assay: Antiproliferative activity against human HL60 cells at 10 umole; assay type: functional
[4] = tested on: KB; assay: Antiproliferative activity against human KB cells at 10 umole; assay type: functional
[5] = tested on: BGC-823; assay: Antiproliferative activity against human BGC823 cells at 10 umole; assay type: functional
[6] = Inhibition of trypsin-like activity of 20S proteasome
[7] = Inhibition of post acidic-like activity of 20S proteasome

Row | SMILES | Activity [1] [%] | IC50 [2] [µmol] | Activity [3] [%] | Activity [4] [%] | Activity [5] [%] | IC50 [6] [µmol] | IC50 [7] [µmol]
1 | CCOC(=O)/C=C/[C@H](Cc1ccccc1)NC(=O)[C@H](CC(C)C)NC(=O)OC(C)(C)C | 1.55 | > 100 | 33.88 | -6.67 | 30.21 | > 100 | > 100
2 | CCOC(=O)/C=C/[C@H](Cc1ccccc1)NC(=O)[C@H](Cc1ccccc1)NC(=O)OC(C)(C)C | -3.61 | > 100 | 25.73 | -4.66 | 20.9 | > 100 | > 100
